In patent publication US12617771B2, “Diphenylpyrazole compound, and preparation method therefor and application thereof” (NORTHWEST A&F UNIVERSITY, priority 2021, dated 2026):

Legend:
[1] = tested on: resistant strains of Plutella xylostella; experiment: Insecticidal synergistic activity with indoxacarb, leaf dip, resistant strains (Huizhou); type: in vivo; details: for Resistance ratio to indoxacarb: 48 hours
Protocol: Experiment: 95% indoxacarb (Ind) original drug was prepared into mother liquor with a concentration of 50000 mg/L. During the test, 6 treatment solutions with concentrations of 500, 250, 125, 62.5, 31.25 and 15.63 mg/L were prepared. 200 mg/L of the compounds PXG1, PXG2 and PXG22 of the present invention were added to each treatment solution, 200 mg/L of diethyl maleate (DEM) was used as the control synergist, and water was used as another control. The Plutella xylostella (Linnaeus) larvae was collected from a vegetable field in Huizhou city, Guangdong Province. Healthy 3rd instar larvae of the same age were selected for indoor biological activity assay.
Clean wild cabbage leaves were cut into discs with a diameter of 6.5 cm (avoiding main veins). The leaves were soaked in the pesticide solution for 10 seconds, then taken out, dried at 25° C., and placed in a petri dish with a diameter of 6.5 cm. 10 larvae of the resistant strains of Plutella xylostella at the early stage of 3rd instar were placed in each petri dish, which was covered with double-layer absorbent roll paper, and covered by the upper cover of the petri dish. It was placed face up in an incubator at a temperature of 25±1° C., a relative humidity of 65%-70%, and a light ratio (L:D) of 16: 8 h. Each treatment was replicated 4 times with 10 larvae per replicate. […] The test process is strictly in accordance with the standard: NY/T 1154.7-2006.
Experimental data analysis was carried out using practical statistical analysis and its computer processing platform (DPS) (TANG Qiyi et al., 1997). The toxicity regression equation of each agent was established, LC50 value and 95% confidence limit were calculated.

PxGSTσ1 = PxGSTσ1 (Plutella xylostella, UniProt Q6F436); experiment: Inhibition of PxGSTσ1 recombinant protein; type: biochemical; details: read-out: 100 μM Inhibition rate %
Chain of PxGSTσ1 (Q6F436 entry or part of it): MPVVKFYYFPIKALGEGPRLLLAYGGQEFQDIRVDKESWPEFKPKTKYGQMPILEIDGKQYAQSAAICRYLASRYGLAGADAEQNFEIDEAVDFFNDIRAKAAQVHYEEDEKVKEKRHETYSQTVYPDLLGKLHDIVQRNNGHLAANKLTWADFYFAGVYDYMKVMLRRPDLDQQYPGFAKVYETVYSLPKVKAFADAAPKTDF
Protocol: (§1) Experiment: 100 μL of PBS buffer (100 mM, pH 7.2) was taken and added to a 96-well plate, 1 μg of PxGSTs recombinant protein and an appropriate concentration of the compounds PXG1-PXG29 of the present invention were added to each well, after uniformly mixing, and allowed to stand at 30° C. for 10 min. Then 100 μL of PBS buffer (100 mM, pH 7.2) containing 1 mM CDNB and 1 mM GSH was successively added to each well. Immediately after mixing, the mixture was placed in a microplate reader to measure the absorbance at a wavelength of 340 nm (A340) once every 1 min, the measurement was continued for 5 min, the light absorption values of each measuring point were recorded and the inhibition rate in vitro of the compounds PXG1-PXG29 of the present invention with different concentrations against PxGSTs recombinant protein were calculated. Each group of assays was repeated three times, and PxGSTs recombinant protein inactivated at 100° C. for 5 min was used as negative control, and GTX was used as positive control. GraphPad Prism 5 software was used for analysis and calculation of IC50. Relative inhibition was calculated using the following formula:
(§2) [formula] • wherein, A340c is the change of A340 […] the control group, an A340t is the change of A340 within 5 minutes for the experimental group.

PxGSTδ1 = PxGSTδ1 (Plutella xylostella, UniProt D7URW9); experiment: Inhibition of PxGSTδ1 recombinant protein; type: biochemical; details: read-out: 100 μM Inhibition rate %
Chain of PxGSTδ1 (D7URW9 entry or part of it): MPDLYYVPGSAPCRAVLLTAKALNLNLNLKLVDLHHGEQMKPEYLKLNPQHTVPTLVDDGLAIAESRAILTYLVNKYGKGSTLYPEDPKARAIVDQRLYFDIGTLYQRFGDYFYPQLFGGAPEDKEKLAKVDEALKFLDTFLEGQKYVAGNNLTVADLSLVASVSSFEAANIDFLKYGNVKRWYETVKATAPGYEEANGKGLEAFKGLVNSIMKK
Protocol: as §1, §2

PxGSTε3 = PxGSTε3 (Plutella xylostella, UniProt O77409); experiment: Inhibition of PxGSTε3 recombinant protein; type: biochemical; details: read-out: 100 μM Inhibition rate %
Chain of PxGSTε3 (O77409 entry or part of it): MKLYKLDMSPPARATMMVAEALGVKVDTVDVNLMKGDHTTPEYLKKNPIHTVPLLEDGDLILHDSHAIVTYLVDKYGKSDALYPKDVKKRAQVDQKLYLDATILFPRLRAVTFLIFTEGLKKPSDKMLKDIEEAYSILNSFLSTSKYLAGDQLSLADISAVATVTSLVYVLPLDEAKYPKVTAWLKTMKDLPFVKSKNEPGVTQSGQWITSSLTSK
Protocol: as §1, §2

PxGSTσ2 = PxGSTσ2 (Plutella xylostella, UniProt Q6F443); experiment: Inhibition of PxGSTσ2 recombinant protein; type: biochemical; details: read-out: 100 μM Inhibition rate %
Chain of PxGSTσ2 (Q6F443 entry or part of it): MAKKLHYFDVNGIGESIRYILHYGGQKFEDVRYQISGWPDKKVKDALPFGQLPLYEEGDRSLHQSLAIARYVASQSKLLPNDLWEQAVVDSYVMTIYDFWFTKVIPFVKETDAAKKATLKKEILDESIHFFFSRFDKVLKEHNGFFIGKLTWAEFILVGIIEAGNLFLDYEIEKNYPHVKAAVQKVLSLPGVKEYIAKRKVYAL
Protocol: as §1, §2

Chilo suppressalis GSTs = experiment: Inhibition of total GSTs enzyme of Chilo suppressalis (CDNB method); type: biochemical
Protocol: (§3) Experiment: About 50 mg of larvae/nymphs of nine major pests such as Plutella xylostella, Mythimna separata, Pyrausta nubilalis, Chilo suppressalis, Nilaparvata lugens, Spodoptera frugiperda, Helicoverpa armigera, Carposina sasakii, Spodoptera litura were taken, grounded in a mortar pre-cooled at −80° C., and then 1 mL of 100 mM sodium phosphate buffer (1 mM EDTA, pH 7.2) was added and fully homogenized. The homogenate was transferred to a 1.5 mL centrifuge tube at 4° C., and centrifuged at 14,000 g for 30 minutes, and the supernatant was transferred to a new centrifuge tube as the GSTs total enzyme. The protein concentrations of the above total enzymes were determined using the BCA method.
(§4) 100 μL of PBS buffer (100 mM, pH 7.2) containing 1 mM GSH was taken and placed in a 96-well plate, 5 μg of insect total GSTs enzymes and an appropriate concentration of compounds PXG1-PXG29 (29 compounds) of the present invention were added to each well, after uniformly mixing, and allowed to stand at 30° C. for 10 min. Then 100 μL of PBS buffer (100 mM, pH 7.2) containing 1 mM CDNB was added to each well. Immediately after mixing, the mixture was placed in a microplate reader to measure the absorbance at a wavelength of 340 nm (A 340) once every 1 min, the measurement was carried out continuously for 5 min, the light absorption values of each measuring point were recorded and the inhibition rate in vitro of the compounds with different concentrations against insects total GSTs enzymes were calculated. Each group of assays was repeated three times, and total GSTs enzymes inactivated at 100° C. for 5 min were used as negative controls, and GTX was used as positive controls. GraphPad Prism 5 software was used for analysis and calculation of IC50. Relative inhibition was calculated using the following formula:
(§5) [formula] • wherein, A340 is the change of A340 within 5 minutes for the control group, and A340t is the change of A340 within 5 minutes for the experimental group.

Carposina sasakii GSTs = experiment: Inhibition of total GSTs enzyme of Carposina sasakii (CDNB method); type: biochemical
Protocol: as §3, §4, §5

Mythimna separata GSTs = experiment: Inhibition of total GSTs enzyme of Mythimna separata (CDNB method); type: biochemical
Protocol: as §3, §4, §5

Pyrausta nubilalis GSTs = experiment: Inhibition of total GSTs enzyme of Pyrausta nubilalis (CDNB method); type: biochemical
Protocol: as §3, §4, §5

Plutella xylostella GSTs = experiment: Inhibition of total GSTs enzyme of Plutella xylostella (CDNB method); type: biochemical
Protocol: as §3, §4, §5

[2] = target: Helicoverpa armigera GSTs; experiment: Inhibition of total GSTs enzyme of Helicoverpa armigera (CDNB method); type: biochemical
Protocol: as §3, §4, §5

Nilaparvata lugens GSTs = experiment: Inhibition of total GSTs enzyme of Nilaparvata lugens (CDNB method); type: biochemical
Protocol: as §3, §4, §5

Spodoptera litura GSTs = experiment: Inhibition of total GSTs enzyme of Spodoptera litura (CDNB method); type: biochemical
Protocol: as §3, §4, §5

[3] = target: Spodoptera frugiperda GSTs; experiment: Inhibition of total GSTs enzyme of Spodoptera frugiperda (CDNB method); type: biochemical
Protocol: as §3, §4, §5

[4] = indoxacarb alone or with 200 mg/L synergist

Row | SMILES | inhibition at 100 µM (PxGSTσ1) | inhibition at 100 µM (PxGSTδ1) | inhibition at 100 µM (PxGSTε3) | inhibition at 100 µM (PxGSTσ2) | IC50 (Chilo suppressalis GSTs) | 100 μM Inhibition rate % (Chilo suppressalis GSTs) | IC50 (Carposina sasakii GSTs) | 100 μM Inhibition rate % (Carposina sasakii GSTs) | IC50 (Mythimna separata GSTs) | 100 μM Inhibition rate % (Mythimna separata GSTs) | IC50 (Pyrausta nubilalis GSTs) | 100 μM Inhibition rate % (Pyrausta nubilalis GSTs) | IC50 (Plutella xylostella GSTs) | 100 μM Inhibition rate % (Plutella xylostella GSTs) | IC50 [2] | 100 μM Inhibition rate % [2] | IC50 (Nilaparvata lugens GSTs) | 100 μM Inhibition rate % (Nilaparvata lugens GSTs) | IC50 (Spodoptera litura GSTs) | 100 μM Inhibition rate % (Spodoptera litura GSTs) | other results
1 | COC(=O)N(C(=O)N1CO[C@@]2(C(=O)OC)Cc3cc(Cl)ccc3C2=N1)c1ccc(OC(F)(F)F)cc1 [Ind, Indoxacarb, reference compound] |  |  |  |  |  |  |  |  |  |  |  |  |  |  |  |  |  |  |  |  | LC50 of indoxacarb ([1]; indoxacarb alone or with 200 mg/L synergist, 3rd instar larvae, mortality after 48 hours): 74.72 mg/L; Resistance ratio to indoxacarb [1, 4]: 143.70
2 | Cc1csc(CC(=O)NNC(=O)c2cc(-c3ccccc3)nn2-c2ccccc2)n1 [PXG2, N′-[2-(4-methyl-1,3-thiazol-2-yl)acetyl]-1,3-diphenyl-1H-pyrazol-5-yl-carbohydrazide] | 25.1% | 87.8% | -4% | 14.6% |  |  |  |  |  |  |  |  |  |  |  |  |  |  |  |  | LC50 of indoxacarb ([1]; in vivo): 39.93 mg/L; Resistance ratio to indoxacarb [1, 4]: 76.78
3 | COc1ccccc1OCC(=O)NNC(=O)c1cc(-c2ccccc2)nn1-c1ccccc1 [PXG18, N′-(1,3-diphenyl-1H-pyrazol-5-yl-carbonyl)-2-(2-methoxyphenoxy)acetohydrazide] | 31.7% | 82% | -2.47% | 13.5% | > 100 µM | 23.00% | > 100 µM | 13.69% | > 100 µM | −2.16% | > 100 µM | 23.84% | > 100 µM | 32.94% | > 100 µM | −3.02% | > 100 µM | 45.31% | > 100 µM | 7.95% | IC50 [3]: > 100 µM; 100 μM Inhibition rate % [3]: 28.67%
4 | N#Cc1ccc(OCC(=O)NNC(=O)c2cc(-c3ccccc3)nn2-c2ccccc2)cc1 [PXG19, 2-(4-cyanophenoxy)-N′-(1,3-diphenyl-1H-pyrazol-5-yl-carbonyl)acetohydrazide] | 45.9% | 58.7% | 5.57% | 32.5% | > 100 µM | 22.03% | > 100 µM | 19.42% | > 100 µM | 47.16% | > 100 µM | 15.64% | > 100 µM | 23.03% | > 100 µM | 6.30% | > 100 µM | 10.00% | > 100 µM | 31.70% | IC50 [3]: > 100 µM; 100 μM Inhibition rate % [3]: 19.64%
5 | N#Cc1ccccc1OCC(=O)NNC(=O)c1cc(-c2ccccc2)nn1-c1ccccc1 [PXG23, 2-(2-cyanophenoxy)-N′-(1,3-diphenyl-1H-pyrazol-5-yl-carbonyl)acetohydrazide] | 35.9% | 77.7% | 6.04% | 26.9% | > 100 µM | 22.83% | > 100 µM | 19.76% | > 100 µM | 22.92% | > 100 µM | 15.55% | > 100 µM | 26.35% | > 100 µM | 0.43% | > 100 µM | 24.74% | > 100 µM | 12.89% | IC50 [3]: > 100 µM; 100 μM Inhibition rate % [3]: 22.33%
6 | O=C(CC12C[C@H]3C[C@H](C1)C[C@@H](C2)C3)NNC(=O)c1cc(-c2ccccc2)nn1-c1ccccc1 [PXG26, N′-(1,3-diphenyl-1H-pyrazol-5-yl-carbonyl)-2-[(3r)-adamantan-1-yl]acetohydrazide] | 67.9% | 21.6% | 7.12% | 24.7% | > 100 µM | 17.07% | > 100 µM | 18.11% | > 100 µM | 42.48% | > 100 µM | −0.99% | > 100 µM | 25.09% | > 100 µM | 24.75% | > 100 µM | 28.56% | > 100 µM | 15.89% | IC50 [3]: > 100 µM; 100 μM Inhibition rate % [3]: 16.01%
7 | CN(C)S(=O)(=O)c1ccc(C(=O)NNC(=O)c2cc(-c3ccccc3)nn2-c2ccccc2)cc1 [PXG29, 4-[N′-(1,3-diphenyl-1H-pyrazol-5-yl-carbonyl) hydrazinocarbonyl]-N,N-dimethyl phenyl-1-sulfonamide] | 53.3% | 16.7% | 0.03% | 44.7% | > 100 µM | 13.81% | > 100 µM | 33.57% | > 100 µM | 4.90% | > 100 µM | 10.83% | > 100 µM | 9.32% | > 100 µM | 10.99% | > 100 µM | −10.71% | > 100 µM | 4.60% | IC50 [3]: > 100 µM; 100 μM Inhibition rate % [3]: 4.82%
